Test results taken from PubChem BioAssay (NCI).
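Assay format: 96-well plates, 48-hour exposure. TGI denotes the concentration required for complete inhibition of growth.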

What was measured:
Experiment in all cases: inhibition of tumour cell growth, NCI panel, 48 h
SNB-19 CNS = tested on: SNB-19 CNS
MDA-N = tested on: MDA-N
SN12C renal = tested on: SN12C renal
HL-60(TB) leukemia = tested on: HL-60(TB) leukemia
UACC-257 melanoma = tested on: UACC-257 melanoma
NCI-H460 lung = tested on: NCI-H460 lung
NCI/ADR-RES ovarian = tested on: NCI/ADR-RES ovarian
HCT-15 colon = tested on: HCT-15 colon
MDA-MB-231 breast = tested on: MDA-MB-231 breast
HS 578T breast = tested on: HS 578T breast
OVCAR-5 ovarian = tested on: OVCAR-5 ovarian
OVCAR-4 ovarian = tested on: OVCAR-4 ovarian
SK-MEL-2 melanoma = tested on: SK-MEL-2 melanoma
LOX IMVI melanoma = tested on: LOX IMVI melanoma
OVCAR-8 ovarian = tested on: OVCAR-8 ovarian
UO-31 renal = tested on: UO-31 renal
SR leukemia = tested on: SR leukemia
HOP-62 NSCLC = tested on: HOP-62 NSCLC
SNB-75 CNS = tested on: SNB-75 CNS
SK-OV-3 ovarian = tested on: SK-OV-3 ovarian
ACHN renal = tested on: ACHN renal
SF-295 CNS = tested on: SF-295 CNS
HCT-116 colon = tested on: HCT-116 colon
MDA-MB-435 = tested on: MDA-MB-435
IGROV1 ovarian = tested on: IGROV1 ovarian
NCI-H226 lung = tested on: NCI-H226 lung
A498 renal = tested on: A498 renal
786-0 renal = tested on: 786-0 renal
BT-549 breast = tested on: BT-549 breast
HT29 colon = tested on: HT29 colon
UACC-62 melanoma = tested on: UACC-62 melanoma
KM12 colon = tested on: KM12 colon
MCF7 breast = tested on: MCF7 breast
DU-145 prostate = tested on: DU-145 prostate
A549 NSCLC = tested on: A549 NSCLC
NCI-H23 lung = tested on: NCI-H23 lung
TK-10 renal = tested on: TK-10 renal
U251 CNS = tested on: U251 CNS
MOLT-4 leukemia = tested on: MOLT-4 leukemia
M14 melanoma = tested on: M14 melanoma
T-47D breast = tested on: T-47D breast
CCRF-CEM leukemia = tested on: CCRF-CEM leukemia
RPMI-8226 leukemia = tested on: RPMI-8226 leukemia
SF-268 CNS = tested on: SF-268 CNS
MALME-3M melanoma = tested on: MALME-3M melanoma
HOP-92 NSCLC = tested on: HOP-92 NSCLC
SK-MEL-5 melanoma = tested on: SK-MEL-5 melanoma
PC-3 prostate = tested on: PC-3 prostate
K-562 leukemia = tested on: K-562 leukemia
HCC-2998 colon = tested on: HCC-2998 colon
EKVX NSCLC = tested on: EKVX NSCLC
COLO 205 colon = tested on: COLO 205 colon
SW-620 colon = tested on: SW-620 colon
SK-MEL-28 melanoma = tested on: SK-MEL-28 melanoma
CAKI-1 renal = tested on: CAKI-1 renal
RXF 393 renal = tested on: RXF 393 renal
OVCAR-3 ovarian = tested on: OVCAR-3 ovarian
NCI-H522 lung = tested on: NCI-H522 lung
SF-539 CNS = tested on: SF-539 CNS

Cc1c(S(=O)(=O)O)ccc(N=Nc2c(O)c(C(=O)O)cc3ccccc23)c1Cl
TGI (SNB-19 CNS): > 100 µM | TGI (MDA-N): > 100 µM | TGI (SN12C renal): > 100 µM | TGI (HL-60(TB) leukemia): > 100 µM | TGI (UACC-257 melanoma): > 100 µM | TGI (NCI-H460 lung): > 100 µM | TGI (NCI/ADR-RES ovarian): > 100 µM | TGI (HCT-15 colon): > 100 µM | TGI (MDA-MB-231 breast): > 100 µM | TGI (HS 578T breast): > 100 µM | TGI (OVCAR-5 ovarian): > 100 µM | TGI (OVCAR-4 ovarian): > 100 µM | TGI (SK-MEL-2 melanoma): > 100 µM | TGI (LOX IMVI melanoma): > 100 µM | TGI (OVCAR-8 ovarian): > 100 µM | TGI (UO-31 renal): > 100 µM | TGI (SR leukemia): > 90.2 µM | TGI (HOP-62 NSCLC): > 100 µM | TGI (SNB-75 CNS): > 100 µM | TGI (SK-OV-3 ovarian): > 100 µM | TGI (ACHN renal): > 100 µM | TGI (SF-295 CNS): > 100 µM | TGI (HCT-116 colon): > 100 µM | TGI (MDA-MB-435): > 100 µM | TGI (IGROV1 ovarian): > 100 µM | TGI (NCI-H226 lung): > 100 µM | TGI (A498 renal): > 100 µM | TGI (786-0 renal): > 100 µM | TGI (BT-549 breast): > 100 µM | TGI (HT29 colon): > 100 µM | TGI (UACC-62 melanoma): > 100 µM | TGI (KM12 colon): > 100 µM | TGI (MCF7 breast): > 100 µM | TGI (DU-145 prostate): > 100 µM | TGI (A549 NSCLC): > 100 µM | TGI (NCI-H23 lung): > 100 µM | TGI (TK-10 renal): > 100 µM | TGI (U251 CNS): > 100 µM | TGI (MOLT-4 leukemia): > 100 µM | TGI (M14 melanoma): > 100 µM | TGI (T-47D breast): > 100 µM | TGI (CCRF-CEM leukemia): > 100 µM | TGI (RPMI-8226 leukemia): > 100 µM | TGI (SF-268 CNS): > 100 µM | TGI (MALME-3M melanoma): > 100 µM | TGI (HOP-92 NSCLC): > 100 µM | TGI (SK-MEL-5 melanoma): > 100 µM | TGI (PC-3 prostate): > 100 µM | TGI (K-562 leukemia): > 100 µM | TGI (HCC-2998 colon): > 100 µM | TGI (EKVX NSCLC): > 100 µM | TGI (COLO 205 colon): > 100 µM | TGI (SW-620 colon): > 100 µM | TGI (SK-MEL-28 melanoma): > 100 µM | TGI (CAKI-1 renal): > 100 µM | TGI (RXF 393 renal): > 100 µM | TGI (OVCAR-3 ovarian): > 100 µM | TGI (NCI-H522 lung): > 100 µM

Cc1occc1C(=S)Nc1ccc(Cl)c(C(=O)OC(C(C)C)C(C)C)c1
TGI (SNB-19 CNS): 58.4 µM | TGI (MDA-N): 29 µM | TGI (SN12C renal): 30.9 µM | TGI (HL-60(TB) leukemia): 29.8 µM | TGI (UACC-257 melanoma): 19.2 µM | TGI (NCI-H460 lung): 31.6 µM | TGI (NCI/ADR-RES ovarian): 26.3 µM | TGI (HCT-15 colon): 33.7 µM | TGI (MDA-MB-231 breast): 27.2 µM | TGI (HS 578T breast): 48.5 µM | TGI (OVCAR-5 ovarian): 57.2 µM | TGI (OVCAR-4 ovarian): 41.9 µM | TGI (SK-MEL-2 melanoma): 38.4 µM | TGI (LOX IMVI melanoma): 26.3 µM | TGI (OVCAR-8 ovarian): 26.5 µM | TGI (UO-31 renal): 17.5 µM | TGI (SR leukemia): 28 µM | TGI (HOP-62 NSCLC): 42.3 µM | TGI (SK-OV-3 ovarian): 53.2 µM | TGI (ACHN renal): 24.9 µM | TGI (SF-295 CNS): 18.5 µM | TGI (HCT-116 colon): 24.5 µM | TGI (MDA-MB-435): 65.8 µM | TGI (IGROV1 ovarian): 31.5 µM | TGI (NCI-H226 lung): 32.2 µM | TGI (A498 renal): 27.8 µM | TGI (786-0 renal): 30.9 µM | TGI (BT-549 breast): 34.6 µM | TGI (HT29 colon): 33.5 µM | TGI (UACC-62 melanoma): 25.7 µM | TGI (KM12 colon): 29.9 µM | TGI (MCF7 breast): 34 µM | TGI (DU-145 prostate): 32 µM | TGI (A549 NSCLC): 31.8 µM | TGI (NCI-H23 lung): 23 µM | TGI (TK-10 renal): 32.4 µM | TGI (U251 CNS): 34.1 µM | TGI (MOLT-4 leukemia): 23.1 µM | TGI (M14 melanoma): 35.3 µM | TGI (T-47D breast): 18.1 µM | TGI (CCRF-CEM leukemia): 33 µM | TGI (RPMI-8226 leukemia): 29.6 µM | TGI (SF-539 CNS): 35 µM | TGI (SF-268 CNS): 45.1 µM | TGI (MALME-3M melanoma): 26 µM | TGI (HOP-92 NSCLC): 22.6 µM | TGI (SK-MEL-5 melanoma): 32 µM | TGI (PC-3 prostate): 25.4 µM | TGI (HCC-2998 colon): 21.9 µM | TGI (EKVX NSCLC): 27.3 µM | TGI (COLO 205 colon): 34.4 µM | TGI (SW-620 colon): 46.2 µM | TGI (SK-MEL-28 melanoma): 29.8 µM | TGI (CAKI-1 renal): 35.4 µM | TGI (RXF 393 renal): 33.7 µM | TGI (OVCAR-3 ovarian): 28.3 µM | TGI (NCI-H522 lung): 25.9 µM
